This is an account of results in patent US6919379B2, “Compounds useful in reflux disease” (AstraZeneca AB, priority 2001, dated 2005).

As usually defined, the melting point is the temperature, or range, at which the solid turns liquid.

Each structure is given as a SMILES string.

`NC[C@@H](F)CS(=O)O` gave a melting point of 136 to 138 °C.
Take `NC[C@H](O)CS(=O)O` [Example 1, (2S)-(3-Amino-2-hydroxypropyl)sulphinic acid]: the melting point was in the range of 206 to 208 °C.
Under `NC[C@@H](O)CS(=O)O` [Example 2, (2R)-(3-Amino-2-hydroxypropyl)sulphinic acid] stands 210 °C.
